The values below come from patent publication US11952610B2, “Digital microbiology” (priority 2016, dated 2024).

Data set [1] deals with MRSA ATCC BAA 2312. The experiment in a line: Droplets with labeled anti-PBP2a antibody, BSA +/- cefoxitin: growth and labeling. The following applies: 3 h at 37° C. It is filed as cell-based, Staphylococcus aureus. As to the method:
In another experiment, an anti-PBP2a antibody (Biosource clone M0071933) that recognizes PBP2a indicative of the resistance against methicillin in Staphylococcus aureus (SA) was labeled using Kit Lynx LNK174PETR (Abd Serotec). […] After incubation at 37° C. for 3 hours, the samples were read using the ZOE™ Fluorescent Cell Imager (Bio-Rad Laboratories). The tables below show growth (visible) and labeling (fluorescence) obtained for the tested strains of MSSA and MRSA.

Data set [2] concerns S. aureus ATCC®43300™. The experiment in a line: Antimicrobial susceptibility testing in water-in-oil droplets, strain with or without induction of resistance. Particulars: for MIC: Staphylococcus aureus.
Protocol: They comprised Escherichia coli (ATCC®25922™), Staphylococcus aureus (ATCC®29212™), Enterococcus faecalis (ATCC®29212™) and Candida albicans (ATCC®24433™). […] This strain is known to carry an heterogeneous resistance phenotype was also used with or without induction with cephalosporins.
Each strain was stored as −80° C. frozen stock. Except when indicated, after overnight cultures in Trypto-casein-soy broth (TCS; Bio-Rad, Marnes 1a Coquette, France), all bacterial strains were started from the same adjusted turbidity which was equivalent to 1:100 of a 0.5 McFarland in TCS. For the Candida albicans, the starting turbidity was equivalent to a 1:10 of a 0.1 McFarland.
Droplets were prepared according to the manufacturer instructions (Bio-Rad) using QX200™ Droplet Generation Oil for EvaGreen (+surfactant) with the mixing parameters adjusted for sample volume and approximate number of microorganisms. Turbidity adjusted cultures were diluted in aqueous-phase reagents with a known concentration of antibiotic or antifungal agents in a 1:1 ratio of TCS culture to aqueous phase reagents (v/v, 10 μL/10 μL).
As soon as the droplets were prepared, the cartridges, protected by an adhesive film, were directly incubated at 37° C. (at 30° C. for the C. albicans).
After 4 and 6 hours of incubation, droplets were pipetted and introduced into cell counting slides (Bio-Rad). The microorganisms were then observed in the droplets using a microscope (objective 100× or 400×). The approximate counts of droplets carrying microorganisms as their growth inside the droplets were reported.
The minimal inhibitory concentration (MIC) was determined as the lowest concentration of an antimicrobial agent that prevents visible growth of a microorganism (i.e. a total absence of bacteria or a total absence of fungal growth observable in droplets using the microscope).
Data set [3] has as its system S. aureus ATCC®29213™. Particulars: cited from earlier work.
For data set [4], the system named is S. aureus ATCC®43300™. Particulars: cited from earlier work.
Data set [5] relates to S. aureus ATCC®29213™. Put plainly: Antimicrobial susceptibility testing in water-in-oil droplets, microscope reading. It is filed as cell-based, Staphylococcus aureus. The procedure: (§1) (at 30° C. for the C. albicans).
Data set [6] concerns Penicillium hirsutum ATCC 16025. The experiment in a line: Inhibition of mold growth outside the droplet aqueous phase, antifungal in oil phase. It is filed as cell-based. The following applies: 0.5 mg/L in the oil phase, 48 hours.
Data set [7] deals with bacteria or yeast. Put plainly: Turbidity of a culture over time in the presence and absence of PI. It is filed as cell-based. The following applies: presence vs absence of PI. The procedure:
FIGS. 13A and 13B are a sample of SA+PI without FOX after 6 h of incubation. FIGS. 14A-14C are SA+PI+0.25 mg/L FOX after 6 h of incubation. FIGS. 15A-15C are SA+PI+0.5 mg/L FOX after 6 h of incubation. FIGS. 16A-16C are SA+PI+4 mg/L FOX after 6 h of incubation. PI is excluded from viable cells and penetrates the cell membranes of dead or dying cells. […] Intercalating agents are considered toxic for cell growth because they react with DNA, blocking the replication of the cells.

Data set [8] relates to C. albicans ATCC®24433™. Put plainly: Antifungal susceptibility testing in water-in-oil droplets, microscope reading. It is filed as cell-based, Candida albicans. As to the method: as §1
The test system of data set [9] is C. albicans ATCC®24433™. The following applies: cited from earlier work.
Data set [10] concerns MSSA ATCC 29213. The experiment in a line: Droplets with labeled fibrinogen, BSA +/- cefoxitin: growth and labeling. It is filed as cell-based, Staphylococcus aureus. As to the method: (§2) Fibrinogen (Sigma Aldrich) that binds to Staphylococcus aureus (S. aureus cells express surface proteins that promote attachment to host proteins such as fibronectin) was labeled using Kit Lynx LNK174PETR (Abd Serotec). […] After incubation at 37° C. for 3 hours, the samples were read using the ZOE™ Fluorescent Cell Imager (Bio-Rad Laboratories). The tables below show growth (visible) and labeling (fluorescence) obtained for the tested strains of MSSA and MRSA.

Data set [11] concerns MRSA ATCC BAA 2312. The data set is described as above. It is filed as cell-based, Staphylococcus aureus. As to the method:
as §2

For data set [12], the system named is MRSA ATCC 49476. The data set is described as above. It is filed as cell-based, Staphylococcus aureus. As to the method:
as §2

The test system of data set [13] is MSSA ATCC 6538. Described as above. It is filed as cell-based, Staphylococcus aureus. As to the method:
as §2

In data set [14] the test system is E. faecalis ATCC®29212™. The experiment in a line: Antimicrobial susceptibility testing in water-in-oil droplets, microscope reading. It is filed as cell-based, Enterococcus faecalis. As to the method: as §1
Data set [15] concerns E. faecalis ATCC®29212™. Particulars: cited from earlier work.
[16] abbreviates: conjugate 1/200, BSA 0 + FOX 0, 3 h at 37° C.
[17] abbreviates: conjugate 1/200, BSA 0 + FOX 2 mg/L, 3 h at 37° C.
Where [18] appears, read: conjugate 1/200, BSA 2.5% + FOX 0, 3 h at 37° C.
Where [19] appears, read: conjugate 1/200, BSA 2.5% + FOX 2 mg/L, 3 h at 37° C.

In brackets after ≈: the same amount, converted by molar mass. Entries after “also recorded” stand apart in the source; their conditions may differ. Read-outs that look alike come from different tables or passages of the source.

On to `CO[C@@]1(NC(=O)Cc2cccs2)C(=O)N2C(C(=O)O)=C(COC(N)=O)CS[C@@H]21` [Cefoxitin], for which the “Growth (visible)” value in data set [1] (BSA 0 + FOX 2 mg/L) is recorded as “Growth +<”; in data set [1] (BSA 2.5% + FOX 2 mg/L) it was “Growth +>”. For the same compound, the “Growth in droplets (observation in words)” value (“Growth in droplets” below) is recorded as “No growth” in data set [2] (4 mg/L, 4 h w/o induction); “Limited growth” in [2] (4 mg/L, 4 h with induction); “Limited growth (few” in [2] (4 mg/L, 6 h w/o induction); “Limited growth” in data set [2] (4 mg/L, 6 h with induction); “Limited growth in few” in [2] (8 mg/L, 4 h with induction); “No growth” in [2] (8 mg/L, 6 h w/o induction). Moreover, the “Growth in droplets” value is recorded as 1 droplet with cells in [2] (8 mg/L, 6 h with induction); “Very limited growth” in data set [2] (16 mg/L, 4 h with induction); “No growth” in data set [2] (16 mg/L, 6 h with induction); “No growth” in [2] (32 mg/L, 4 h with induction); “No growth” in data set [5] (2 mg/L, reading time 4 h); “No growth” in data set [5] (2 mg/L, reading time 6 h). Moreover, the MIC in [2] (ATCC43300, read-out: Observed MIC, using non induced strain) was 2 to 4 mg/L (≈ 4.68 to 9.36 µM); in data set [2] (ATCC43300, read-out: Observed MIC, with induced strain), 16 to 32 mg/L (≈ 37.4 to 74.9 µM); in data set [5] (Staphylococcus aureus, ATCC29213, droplets at 37° C., read after 4 and 6 h, read-out: Observed MIC) it was 2 mg/L (≈ 4.68 µM). Also, the “Expected MIC (CLSI)” value in data set [3] was 1 to 4 mg/L. In addition, the “Expected MIC (JCM)” value in data set [4] was 16 to 32 mg/L. Also, the “Growth in % of droplets” value in data set [5] (0.5 mg/L, reading time 4 h) is 20-30% of droplets; in data set [5] (1 mg/L, reading time 4 h), ~20% of droplets; in [5] (1 mg/L, reading time 6 h), “Growth in <50% of”.
As for `C=CCOC(Cn1ccnc1)c1ccc(Cl)cc1Cl` (racemic) [Imazalil, (RS)-1-[2-(allyloxy)-2-(2,4-dichlorophenyl)ethyl]-1H-imidazole], the “Mold growth outside the aqueous phase” value in data set [6] was “the hyphae spreading was inhibited and mold growth was confined within the droplet; also recorded: inhibition of mold growth outside the aqueous phase”.
As for `CC[N+](C)(CC)CCC[n+]1c(-c2ccccc2)c2cc(N)ccc2c2ccc(N)cc21.[I-].[I-]` [PI, propidium iodide], the “Impact on growth of bacteria or yeast” value in [7] was “only a limited impact”.
For the compound `OC(Cn1cncn1)(Cn1cncn1)c1ccc(F)cc1F` [Fluconazole], the “Growth in % of droplets” value in data set [8] (1 mg/L, reading time 6 h) was “Growth in 15-20%”; in data set [8] (2 mg/L, reading time 4 h), “Growth in 15-20%”; in [8] (2 mg/L, reading time 6 h) it was “Growth in 15-20%”; in data set [8] (4 mg/L, reading time 4 h) it was ~15% of droplets; in data set [8] (4 mg/L, reading time 6 h) it was “Growth in 15-20%”. For the same compound, the “Growth in droplets” value in data set [8] (8 mg/L, reading time 4 h) is listed as “Limited growth”; in [8] (8 mg/L, reading time 6 h), “Limited growth”; in [8] (16 mg/L, reading time 4 h), “Limited growth”; in data set [8] (16 mg/L, reading time 6 h), “Limited growth”; in data set [8] (32 mg/L, reading time 4 h), “Limited growth”; in data set [8] (32 mg/L, reading time 6 h), “Limited growth”. The “Growth in droplets” value is “Limited growth” in data set [8] (64 mg/L, reading time 4 h) and “Limited growth” in [8] (64 mg/L, reading time 6 h). Further, the “Expected MIC (CLSI)” value in [9] is 0.25 to 1 mg/L.
Consider Fibrinogen, for which the “Labeling (fluorescence)” value in data set [10] (setting [16]) is “Fluo ++”; in data set [10] (setting [17]), “BN (+)”; in [10] (setting [18]), “Fluo +++”; in data set [10] (setting [19]), “BN (+)”; in data set [11] (setting [16]), “BN (+)”; in data set [11] (setting [17]), “BN (+)”. In addition, the “Labeling (fluorescence)” value in data set [11] (setting [18]), in data set [11] (setting [19]), in data set [12] (setting [16]), in data set [12] (setting [18]), in data set [12] (setting [19]) and in data set [13] (setting [16]) was “Fluo +++” in each case. For the same compound, the “Labeling (fluorescence)” value in [13] (setting [17]) was “BN (+)”; in data set [13] (setting [18]) it was “Fluo +++”; in [13] (setting [19]), “BN (+)”.
For the compound `CN[C@H](CC(C)C)C(=O)N[C@H]1C(=O)N[C@@H](CC(N)=O)C(=O)N[C@H]2C(=O)N[C@H]3C(=O)N[C@H](C(=O)N[C@H](C(=O)O)c4cc(O)cc(O)c4-c4cc3ccc4O)[C@H](O)c3ccc(c(Cl)c3)Oc3cc2cc(c3O[C@@H]2O[C@H](CO)[C@@H](O)[C@H](O)[C@H]2O[C@H]2C[C@](C)(N)[C@H](O)[C@H](C)O2)Oc2ccc(cc2Cl)[C@H]1O` [Vancomycin], the “Growth in % of droplets” value in data set [14] (0.25 mg/L, reading time 4 h) is reported as “Growth in 25-50%”; in data set [14] (0.25 mg/L, reading time 6 h), “Growth in 20-50%”; in data set [14] (0.5 mg/L, reading time 4 h) it was “Growth in 25-30%”; in [14] (0.5 mg/L, reading time 6 h) it was ~30% of droplets; in data set [14] (1 mg/L, reading time 6 h) it was “Growth in 20-30%”; in [5] (0.25 mg/L, reading time 4 h), 25-50% of droplets. In addition, the “Growth in % of droplets” value in data set [5] (0.25 mg/L, reading time 6 h) is listed as ~50% of the droplets; in [5] (0.5 mg/L, reading time 6 h), ~10% of droplets. In addition, the “Growth in droplets” value is on record as “Limited growth in” in data set [14] (1 mg/L, reading time 4 h); “No growth” in data set [14] (2 mg/L, reading time 4 h); “No growth” in data set [14] (2 mg/L, reading time 6 h); 1 droplet with cells in [5] (0.5 mg/L, reading time 4 h); “No growth” in [5] (1 mg/L, reading time 6 h). The “Expected MIC (CLSI)” value in data set [15] was 1 to 4 mg/L; in [3], 0.25 to 1 mg/L.
As to `C[C@@H]1[C@H](O)[C@@H](C)/C=C/C=C/C=C/C=C/C=C/C=C/C=C/[C@H](O[C@@H]2O[C@H](C)[C@@H](O)[C@H](N)[C@@H]2O)C[C@@H]2O[C@](O)(C[C@@H](O)C[C@@H](O)[C@H](O)CC[C@@H](O)C[C@@H](O)CC(=O)O[C@H]1C)C[C@H](O)[C@H]2C(=O)O` [Amphotericin B], the “Growth in % of droplets” value is listed as 15-20% of in [8] (0.125 mg/L, reading time 4 h); 15-20% of in [8] (0.25 mg/L, reading time 4 h); 30-40% of the in data set [8] (0.25 mg/L, reading time 6 h); 15-20% of in [8] (0.5 mg/L, reading time 4 h); approximately 30% of in [8] (0.5 mg/L, reading time 6 h); approximately 20% of in [8] (0.5 mg/L, reading time 24 h). The “Growth in droplets” value in data set [8] (0.25 mg/L, reading time 24 h) was “Full growth”; in data set [8] (1 mg/L, reading time 4 h), “Limited”; in data set [8] (1 mg/L, reading time 6 h) it was “Limited”; in data set [8] (1 mg/L, reading time 24 h), “Limited”; in data set [8] (2 mg/L, reading time 6 h), “Limited”; in data set [8] (2 mg/L, reading time 24 h), “Limited”. Besides, in [8] (8 mg/L, reading time 24 h), the “Growth in droplets” value was 1-2 cells. Moreover, the “Observed MIC” value in [8] (droplets at 30° C., read after 4, 6 (24) h) lay within 2 to 4 mg/L. Also, in [9], the “Expected MIC (CLSI)” value is 0.25 to 1 mg/L.

One may read the MIC as the lowest concentration found to suppress growth.
